Our source for the Critical pressure and Critical temperature values is the NIST ThermoML archive (doi:10.1016/j.fluid.2014.07.038).

Numbers after ± are expanded uncertainties.

For this series the following is noted: Liquid; pulse heating to limit of superheat.
With `OCc1ccccc1` [benzenemethanol], the Critical pressure was 4330 ± 200 kPa and the Critical temperature turned out to be 713 ± 14 K.

Consider `O=Cc1ccccc1C(=O)O` [2-carboxybenzaldehyde], for which the Critical pressure is recorded as 4800 ± 300 kPa and the Critical temperature was 864 ± 18 K.

Take `Cc1ccc(C(=O)O)cc1` [4-methylbenzoic acid]: the Critical pressure stood at 3800 ± 200 kPa and the Critical temperature is on record as 775 ± 16 K.

On to `Cc1ccccc1C(=O)O` [2-methylbenzoic acid], for which the Critical pressure was determined as 3920 ± 240 kPa and the Critical temperature is 763 ± 16 K.

As for `O=C(O)c1ccccc1` [benzoic acid], the Critical pressure came out at 4530 ± 200 kPa and the Critical temperature is recorded as 755 ± 16 K.

Regarding `CCCCCCCCCCCCCCCCCC(=O)OC` [methyl octadecanoate], the Critical pressure worked out at 1080 ± 60 kPa and the Critical temperature is on record as 785 ± 16 K.

For `CC(C)(CO)CO` [2,2-dimethyl-1,3-propanediol], the Critical pressure came out at 4200 ± 400 kPa and the Critical temperature was found to be 687 ± 20 K.

On to `Cc1cccc(C(=O)O)c1` [3-methylbenzoic acid], for which the Critical pressure was determined as 3850 ± 240 kPa and the Critical temperature came out at 771 ± 16 K.

For the compound `CCCCCCCCCCCCCCCC(=O)OC` [methyl hexadecanoate], the Critical pressure was 1170 ± 80 kPa and the Critical temperature came out at 760 ± 16 K.

Consider `CCCCCCCC/C=C\CCCCCCCC(=O)OC` [methyl cis-9-octadecenoate], for which the Critical pressure was determined as 1210 ± 80 kPa and the Critical temperature turned out to be 777 ± 16 K.

With `Cc1ccc(C=O)cc1` [4-methylbenzaldehyde], the Critical pressure was 3800 ± 200 kPa and the Critical temperature turned out to be 712 ± 14 K.

Turning to `OCCCO` [propan-1,3-diol], the Critical pressure stood at 6380 ± 520 kPa and the Critical temperature was 721 ± 22 K.

In the case of `CCCCCCCCCCCCCC(=O)OC` [methyl tetradecanoate], the Critical pressure is 1320 ± 80 kPa and the Critical temperature stood at 730 ± 14 K.

Take `O=Cc1ccccc1` [benzaldehyde]: the Critical pressure is recorded as 4410 ± 200 kPa and the Critical temperature is on record as 692 ± 14 K.

On to `Cc1ccc(CO)cc1` [1-(hydroxymethyl)-4-methylbenzene], for which the Critical pressure came to 3610 ± 200 kPa and the Critical temperature is listed as 719 ± 14 K.
